Measured values from article PMC11425263, “Otilonium Bromide Exhibits Potent Antifungal Effects by Blocking Ergosterol Plasma Membrane Localization and Triggering Cytotoxic Autophagy in Candida Albicans” (Advanced Science, 2024).

Target: T1, Sec31 (Candida albicans, UniProt Q5AAU3)
T1 construct: gene PGA63; full-length with N-terminal GFP tag, expressed in C. albicans, tested in whole cell lysate; COPII coat component
T1 sequence (Q5AAU3 1-1265): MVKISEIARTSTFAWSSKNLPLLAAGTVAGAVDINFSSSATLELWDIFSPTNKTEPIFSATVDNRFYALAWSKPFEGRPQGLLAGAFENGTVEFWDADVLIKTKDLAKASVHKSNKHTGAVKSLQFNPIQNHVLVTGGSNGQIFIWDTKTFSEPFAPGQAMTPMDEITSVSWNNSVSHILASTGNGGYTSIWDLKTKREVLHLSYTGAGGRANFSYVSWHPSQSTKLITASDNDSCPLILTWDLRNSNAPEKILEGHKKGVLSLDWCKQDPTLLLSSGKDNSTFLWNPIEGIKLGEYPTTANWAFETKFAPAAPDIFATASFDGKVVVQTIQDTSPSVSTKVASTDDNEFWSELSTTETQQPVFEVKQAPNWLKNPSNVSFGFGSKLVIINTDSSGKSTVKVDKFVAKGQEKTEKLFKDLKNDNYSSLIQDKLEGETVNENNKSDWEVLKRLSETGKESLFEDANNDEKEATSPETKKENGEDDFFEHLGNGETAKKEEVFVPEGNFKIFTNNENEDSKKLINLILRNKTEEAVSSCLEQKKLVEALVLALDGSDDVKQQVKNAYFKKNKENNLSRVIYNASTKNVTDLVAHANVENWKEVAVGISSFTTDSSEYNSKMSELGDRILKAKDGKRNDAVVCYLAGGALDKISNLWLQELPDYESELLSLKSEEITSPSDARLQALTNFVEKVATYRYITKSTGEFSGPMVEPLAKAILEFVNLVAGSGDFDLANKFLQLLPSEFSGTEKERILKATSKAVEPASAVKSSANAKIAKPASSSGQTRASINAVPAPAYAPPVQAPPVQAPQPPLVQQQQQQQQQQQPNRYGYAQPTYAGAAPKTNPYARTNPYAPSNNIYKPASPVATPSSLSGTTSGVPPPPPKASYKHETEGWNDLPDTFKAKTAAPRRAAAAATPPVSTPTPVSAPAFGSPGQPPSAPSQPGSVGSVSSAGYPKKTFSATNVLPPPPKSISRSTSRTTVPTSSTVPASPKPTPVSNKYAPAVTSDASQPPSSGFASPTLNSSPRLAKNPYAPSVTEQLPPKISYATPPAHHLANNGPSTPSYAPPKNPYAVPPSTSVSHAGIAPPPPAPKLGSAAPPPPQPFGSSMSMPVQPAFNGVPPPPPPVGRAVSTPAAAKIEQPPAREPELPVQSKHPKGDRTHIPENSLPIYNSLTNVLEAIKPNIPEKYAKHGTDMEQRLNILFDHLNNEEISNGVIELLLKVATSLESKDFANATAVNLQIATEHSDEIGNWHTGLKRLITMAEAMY
Assay: DARTS, thermolysin protection, anti-GFP western blot
Type: biochemical
Conditions: GFP-Sec31 cell lysate; OTB 3.125 to 12.5 µg/mL, 1 h room temperature; thermolysin 15 min; beta-tubulin as control

CCCCCCCCOc1ccccc1C(=O)Nc1ccc(C(=O)OCC[N+](C)(CC)CC)cc1 [otilonium bromide]
DARTS, thermolysin protection, anti-GFP western blot: OTB effectively shielded Sec31 from degradation induced by thermolysin
